The text below walks through data of patent EP4741383A1, “COMPOUND AND USE THEREOF AS ANTI-CANCER DRUG” (Tyligand Bioscience (Shanghai) Limited, priority 2023, dated 2025).

The test system of test [1] is 4T1. The experiment in a line: CellTiter-Glo cell proliferation inhibition, 4T1. Type of test: cell-based. To be noted: 4T1 (mouse breast cancer cell line), 72 hours; read-out: Example IC50 (µM) 4T1. From the text: (§1) This experiment used the CellTiter-Glo® Luminescent Cell Viability Assay kit from Promega to evaluate the inhibitory activity of the disclosed compounds on the proliferation of the following cell lines: 4T1 (mouse breast cancer cell line), A20 (mouse B-cell lymphoma cell line), A2780 (human ovarian cancer cell line), AsPC-1 (pancreatic cancer cell line), B16F10 (mouse melanoma cell line), BT549 (human breast cancer cell line), CT26 (mouse colon cancer cell line), EMT6 (mouse breast cancer cell line), HCT116 (colorectal cancer cell line), Jurket (acute leukemia cell line), KP-4 (pancreatic cancer cell line), LL/2 (mouse lung cancer cell line), MCF7 (breast cancer cell line), […] NCI-H358 (lung cancer cell line), NCI-H727 (gastric cancer cell line), NCI-1944 (lung cancer cell line), Pan 04.03 (pancreatic cancer cell line), SK-BR-3 (breast cancer cell line), THP-1 (leukemia cell line), TOV21G (ovarian cancer cell line), U87MG (glioblastoma cell line), and UM-UC-a (bladder cancer cell line). […]
(§2) Cells were cultured according to the instructions provided by the cell supplier (Nanjing Kebai Biotechnology Co., Ltd.). […] Suspension or adherent cells were collected, and cell viability was determined using the trypan blue exclusion method, ensuring that cell viability was above 90%. […]

The test system of test [2] is A2780. Briefly: CellTiter-Glo cell proliferation inhibition, A2780. Type of test: cell-based. The note with it: A2780 (human ovarian cancer cell line), 72 hours; read-out: Example IC50 (µM) A2780.
Source text: as §1, §2

Test [3] concerns AsPC-1. The experiment in a line: CellTiter-Glo cell proliferation inhibition, AsPC-1. In kind it is cell-based. To be noted: Homo sapiens, ASPC1; AsPC-1 (pancreatic cancer cell line), 72 hours; read-out: Example IC50 (µM) AsPC-1.
Source text: as §1, §2

The test system of test [4] is BT549. The experiment in a line: CellTiter-Glo cell proliferation inhibition, BT549. Type of test: cell-based. The note with it: BT-549; BT549 (human breast cancer cell line), 72 hours; read-out: Example IC50 (µM) BT549.
Source text: as §1, §2

For test [5], the system named is CT26. Briefly: CellTiter-Glo cell proliferation inhibition, CT26. The note with it: CT26 (mouse colon cancer cell line), 72 hours; read-out: Example IC50 (µM) CT26. Type of test: cell-based.
Source text: as §1, §2

Test [6] has as its system EMT6. The experiment in a line: CellTiter-Glo cell proliferation inhibition, EMT6. Type of test: cell-based. To be noted: EMT6 (mouse breast cancer cell line), 72 hours; read-out: Example IC50 (µM) EMT6.
Source text: as §1, §2

The subject of test [7] is KP-4. The experiment in a line: CellTiter-Glo cell proliferation inhibition, KP-4. The note with it: Homo sapiens; KP-4 (pancreatic cancer cell line), 72 hours; read-out: Example IC50 (µM) KP-4. Type of test: cell-based.
Source text: as §1, §2

In test [8] the test system is MCF7. Briefly: CellTiter-Glo cell proliferation inhibition, MCF7. In kind it is cell-based. The note with it: Homo sapiens; MCF7 (breast cancer cell line), 72 hours; read-out: Example IC50 (µM) MCF7.
Source text: as §1, §2

The subject of test [9] is MKN45. Briefly: CellTiter-Glo cell proliferation inhibition, MKN45. In kind it is cell-based. The note with it: MKN-45; MKN45 (mouse B-cell lymphoma cell line), 72 hours; read-out: Example IC50 (µM) MKN45.
Source text: as §1, §2

Test [10] deals with Pan 04.03. Briefly: CellTiter-Glo cell proliferation inhibition, Pan 04.03. Type of test: cell-based. To be noted: Pan 04.03 (pancreatic cancer cell line), 72 hours; read-out: Example IC50 (µM) Pan 04.03.
Source text: as §1, §2

The subject of test [11] is TOV21G. The experiment in a line: CellTiter-Glo cell proliferation inhibition, TOV21G. The note with it: Homo sapiens; TOV21G (ovarian cancer cell line), 72 hours; read-out: Example IC50 (µM) TOV21G. Type of test: cell-based.
Source text: as §1, §2

In test [12] the test system is U87MG. The experiment in a line: CellTiter-Glo cell proliferation inhibition, U87MG. Type of test: cell-based. To be noted: Homo sapiens, U-87 MG; U87MG (glioblastoma cell line), 72 hours; read-out: Example IC50 (µM) U87MG.
Source text: as §1, §2

The test system of test [13] is UM-UC-a. The experiment in a line: CellTiter-Glo cell proliferation inhibition, UM-UC-a. Type of test: cell-based. The note with it: UM-UC-a (bladder cancer cell line), 72 hours; read-out: Example IC50 (µM) UM-UC-a.
Source text: as §1, §2

The target of test [14] is SHP2 (Homo sapiens, UniProt Q06124). The note with it: J. Med. Chem. 2014, 57, 6594-6609; read-out: enzyme activity IC50; cited from earlier work.
Chain of SHP2 (Q06124 whole entry): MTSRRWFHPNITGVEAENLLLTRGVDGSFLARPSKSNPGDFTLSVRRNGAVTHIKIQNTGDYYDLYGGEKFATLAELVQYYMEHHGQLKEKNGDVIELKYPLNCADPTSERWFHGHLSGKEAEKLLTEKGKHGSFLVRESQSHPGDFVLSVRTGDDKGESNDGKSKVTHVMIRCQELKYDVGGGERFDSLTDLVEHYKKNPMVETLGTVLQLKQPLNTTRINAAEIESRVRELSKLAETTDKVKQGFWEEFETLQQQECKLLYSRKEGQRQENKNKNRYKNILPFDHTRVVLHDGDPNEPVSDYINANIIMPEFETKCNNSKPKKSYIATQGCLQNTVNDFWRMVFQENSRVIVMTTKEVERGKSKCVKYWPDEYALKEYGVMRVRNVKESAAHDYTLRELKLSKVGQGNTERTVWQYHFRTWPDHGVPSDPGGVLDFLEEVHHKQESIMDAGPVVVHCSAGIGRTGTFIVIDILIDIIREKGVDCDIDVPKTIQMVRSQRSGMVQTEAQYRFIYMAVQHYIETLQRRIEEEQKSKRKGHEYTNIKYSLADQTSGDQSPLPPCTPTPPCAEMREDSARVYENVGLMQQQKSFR
The conditions of test [15]: J. Med. Chem. 2014, 57, 6594-6609; read-out: cellular activity IC50; cited from earlier work.

Consider `O=C(Nc1ccc(-c2csc(CO)c2)cc1)C(=O)Nc1ccc(-c2cc3cc(F)c(-c4nnn[nH]4)cc3n2C2CCC2)cc1` [Example 1], for which the IC50 in test [1] stood at 0.125 µM; in [2], 0.128 µM; in test [3], 0.121 µM; in test [4] it was 0.121 µM; in test [5] it was 0.123 µM; in test [6], 0.131 µM. Moreover, the IC50 in [7] stood at 0.228 µM; in [8] it was 0.083 µM; in test [9], 0.326 µM; in test [10], 0.34 µM; in test [11] it was 0.112 µM; in test [12], 0.276 µM. Also, in [13], the IC50 was determined as 0.193 µM.
In the case of `Cn1c(-c2cccc(NC(=O)C(=O)Nc3ccc(-c4ccsc4)cc3)c2)c(I)c2cc(C(=O)O)c(O)cc21` [Example 11a-1, reference compound], the IC50 in test [14] was around 0.2 µM; in [15], at least 1 µM.
For `O=C(Nc1ccc(-c2cc3cc(F)c(-c4nnn[nH]4)cc3n2C2CCC2)cc1)C(=O)Nc1ccc(N2CCC3(CCC(O)C3)CC2)cc1` (stereo not drawn) [Example 100], the IC50 in test [1] was found to be 0.14 µM; in test [4] it was 0.047 µM; in [5] it was 0.134 µM; in test [8] it was 0.05 µM; in [11], 0.106 µM; in test [12] it was 0.075 µM.
